From article doi:10.1101/2025.01.28.635346v1 (bioRxiv, 2025)
Bridge positions count the residues as written; N and C are the ends. Side chains are listed from the residue outwards. Peptide text beside a SMILES is read from it. * marks the point of attachment. Butanoyl(4-(4-I-phenyl)) = O=C(CCCc1ccc(I)cc1)*; PEG2 = NCCOCCOCCC(=O)O

Columns and labels:
[1] = target: T1, integrin αIIbβ3 (Homo sapiens, UniProt P05106+P08514); assay: ELISA competition assay, integrin αIIbβ3; type: binding
T1 sequence (P08514 32-993 limits assumed): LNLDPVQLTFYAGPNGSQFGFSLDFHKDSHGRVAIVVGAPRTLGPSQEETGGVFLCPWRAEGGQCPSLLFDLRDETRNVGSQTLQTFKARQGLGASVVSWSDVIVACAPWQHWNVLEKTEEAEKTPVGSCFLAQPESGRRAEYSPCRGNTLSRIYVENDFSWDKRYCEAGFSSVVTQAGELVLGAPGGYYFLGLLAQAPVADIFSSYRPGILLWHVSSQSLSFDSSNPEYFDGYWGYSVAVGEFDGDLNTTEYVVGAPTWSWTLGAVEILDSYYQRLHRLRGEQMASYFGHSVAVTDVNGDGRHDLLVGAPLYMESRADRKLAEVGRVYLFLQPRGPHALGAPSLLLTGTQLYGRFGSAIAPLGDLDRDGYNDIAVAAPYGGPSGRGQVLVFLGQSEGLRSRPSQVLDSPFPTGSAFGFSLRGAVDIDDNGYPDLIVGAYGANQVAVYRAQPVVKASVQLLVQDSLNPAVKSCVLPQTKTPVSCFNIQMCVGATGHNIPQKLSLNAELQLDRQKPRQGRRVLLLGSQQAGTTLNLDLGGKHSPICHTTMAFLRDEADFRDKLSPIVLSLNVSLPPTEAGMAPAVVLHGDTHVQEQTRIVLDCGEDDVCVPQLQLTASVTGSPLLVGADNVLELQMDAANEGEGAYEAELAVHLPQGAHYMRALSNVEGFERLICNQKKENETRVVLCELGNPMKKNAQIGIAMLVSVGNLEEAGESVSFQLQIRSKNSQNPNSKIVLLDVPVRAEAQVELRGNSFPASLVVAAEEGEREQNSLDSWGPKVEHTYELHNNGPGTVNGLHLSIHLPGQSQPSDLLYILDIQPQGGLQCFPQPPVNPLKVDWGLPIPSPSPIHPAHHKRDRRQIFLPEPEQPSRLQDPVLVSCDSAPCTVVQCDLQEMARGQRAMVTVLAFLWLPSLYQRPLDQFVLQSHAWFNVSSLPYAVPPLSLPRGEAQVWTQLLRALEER
T1 sequence (P05106 27-718 limits assumed): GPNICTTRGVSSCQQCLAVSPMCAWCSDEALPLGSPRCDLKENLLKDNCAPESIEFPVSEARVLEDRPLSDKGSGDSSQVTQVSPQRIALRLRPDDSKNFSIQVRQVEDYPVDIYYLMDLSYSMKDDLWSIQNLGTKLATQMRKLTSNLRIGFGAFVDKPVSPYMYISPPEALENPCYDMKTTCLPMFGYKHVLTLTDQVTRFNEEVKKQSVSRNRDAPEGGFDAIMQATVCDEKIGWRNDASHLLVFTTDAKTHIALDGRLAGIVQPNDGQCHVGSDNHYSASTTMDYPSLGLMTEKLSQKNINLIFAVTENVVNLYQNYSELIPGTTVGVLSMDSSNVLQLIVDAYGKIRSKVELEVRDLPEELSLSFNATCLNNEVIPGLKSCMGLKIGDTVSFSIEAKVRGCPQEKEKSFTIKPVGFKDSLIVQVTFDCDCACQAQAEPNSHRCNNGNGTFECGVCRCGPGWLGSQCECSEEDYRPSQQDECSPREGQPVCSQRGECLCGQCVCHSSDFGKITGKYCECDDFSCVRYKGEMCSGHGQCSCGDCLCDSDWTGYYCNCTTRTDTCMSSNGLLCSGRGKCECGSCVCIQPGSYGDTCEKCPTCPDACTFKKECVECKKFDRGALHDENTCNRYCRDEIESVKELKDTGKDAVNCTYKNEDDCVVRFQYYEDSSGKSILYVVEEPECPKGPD

[2] = Pharmacokinetics in female Balb/c mice; type: in vivo, mouse
[3] = target: DRD1 (Homo sapiens, UniProt P21728); assay: Safetyscan47 GPCR cAMP, Antagonist; type: cell-based; details: for Emax: read-out: Max Response
[4] = IP 30 mg/kg, mouse, animal 11F031
[5] = IP 30 mg/kg, mouse, animal 11F032
[6] = IP 30 mg/kg, mouse, animal 11F033
[7] = Table 3SA: IP 30 mg/kg, Mean N=2
[8] = female, Balb/c, mouse, plasma, ip, 30 mg/kg
[9] = Table S3B, IP 30 mg/kg, mouse, animal 2F001
[10] = Table S3B, IP 30 mg/kg, mouse, animal 2F002
[11] = Table S3B, IP 30 mg/kg, mouse, animal 2F003
[12] = Table S3B, IP 30 mg/kg, mouse, animal 2F004
[13] = Table S3B, IP 30 mg/kg, mouse, animal 2F005
[14] = Table S3B: IP 30 mg/kg, Mean N=5
[15] = Table S3D, IP 10 mg/kg, mouse, animal 1F001
[16] = Table S3D, IP 10 mg/kg, mouse, animal 1F002
[17] = Table S3D, IP 10 mg/kg, mouse, animal 1F003
[18] = Table S3D, IP 10 mg/kg, mouse, animal 1F004
[19] = Table S3D, IP 10 mg/kg, mouse, animal 1F005
[20] = Table S3D, SC 10 mg/kg, mouse, animal 2F001
[21] = Table S3D, SC 10 mg/kg, mouse, animal 2F002
[22] = Table S3D, SC 10 mg/kg, mouse, animal 2F003
[23] = Table S3D, SC 10 mg/kg, mouse, animal 2F004
[24] = Table S3D, SC 10 mg/kg, mouse, animal 2F005
[25] = female, Balb/c, mouse, plasma, ip, 10 mg/kg
[26] = female, Balb/c, mouse, plasma, sc, 10 mg/kg

DRD1, sequence (P21728 whole entry): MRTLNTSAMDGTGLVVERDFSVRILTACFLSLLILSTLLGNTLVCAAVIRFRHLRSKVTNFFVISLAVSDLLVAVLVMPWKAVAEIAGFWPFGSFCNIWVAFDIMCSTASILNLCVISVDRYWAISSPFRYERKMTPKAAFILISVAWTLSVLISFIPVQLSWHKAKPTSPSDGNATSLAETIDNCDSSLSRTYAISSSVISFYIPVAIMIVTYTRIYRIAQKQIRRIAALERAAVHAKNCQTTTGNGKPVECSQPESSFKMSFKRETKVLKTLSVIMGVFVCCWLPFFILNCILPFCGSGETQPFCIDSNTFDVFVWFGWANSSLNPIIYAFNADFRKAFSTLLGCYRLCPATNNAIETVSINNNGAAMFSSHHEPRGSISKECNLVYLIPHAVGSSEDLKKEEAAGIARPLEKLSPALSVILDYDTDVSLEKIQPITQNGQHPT

## CC[C@H](C)[C@H](NC(=O)[C@H](CC(C)C)NC(=O)[C@H](CC(=O)O)NC(=O)CNC(=O)[C@H](CCCNC(=N)N)NC(=O)[C@@H](NC(=O)[C@H](Cc1ccccc1)NC(=O)[C@H](Cc1ccc(O)cc1)NC(=O)[C@@H]1CCC(=O)NCC(=O)NCC(=O)N[C@@H](CCCNC(=N)N)C(=O)NCC(=O)N[C@@H](Cc2c[nH]cn2)C(=O)N[C@@H](C(C)C)C(=O)N2CCC[C@H]2C(=O)N1)C(C)C)C(=O)N[C@@H](CO)C(=O)N[C@@H](Cc1ccccc1)C(=O)N[C@@H](Cc1ccc(O)cc1)C(=O)N[C@@H](CCCCN)C(=O)O [lassotide 36] (GGRGHVPEYFVRGDLISFYK-OH; lactam N-8)
[1]
  IC50: 0.332 µM
[2]; [4]
  AUCINF: 64500
  AUClast: 64500
  CL/F: 7.75
  Cmax: 21000
  Tmax: 2.0
  Vz/F: 363
  t1/2: 0.54
[2]; [5]
  AUCINF: 71700
  AUClast: 69400
  CL/F: 6.97
  Cmax: 27300
  Tmax: 1.0
  Vz/F: 389
  t1/2: 0.64
[2]; [6]
  AUClast: 885
  Cmax: 10600
  Tmax: 0.17
[2]; Mouse, 30 mg/kg IP, mean
  Vz: 0.4 L/kg
[2]; [7]
  AUCINF: 68100
  Vz/F: 376
[2]; [8]
  AUC(0-t): 44.9 µg·h/mL
  CL/F: 0.442 L/h/kg
  Cmax: 19.6 µg/mL
  Tmax: 1.06 h
  half-life: 0.592 h
[3]
  IC50: > 45 µM
  Emax: 11.1%

## CC[C@H](C)[C@H](NC(=O)[C@H](CC(C)C)NC(=O)[C@H](CC(=O)O)NC(=O)CNC(=O)[C@H](CCCNC(=N)N)NC(=O)[C@@H](NC(=O)[C@H](Cc1ccccc1)NC(=O)[C@H](Cc1ccc(O)cc1)NC(=O)[C@@H]1CCC(=O)NCC(=O)NCC(=O)N[C@@H](CCCNC(=N)N)C(=O)NCC(=O)N[C@@H](Cc2c[nH]cn2)C(=O)N[C@@H](C(C)C)C(=O)N2CCC[C@H]2C(=O)N1)C(C)C)C(=O)N[C@@H](CO)C(=O)N[C@@H](Cc1ccccc1)C(=O)N[C@@H](Cc1ccc(O)cc1)C(=O)N[C@@H](CCCCNC(=O)CCOCCOCCNC(=O)CCCc1ccc(I)cc1)C(=O)O [lassotide 47] (GGRGHVPEYFVRGDLISFYK([PEG2-Butanoyl(4-(4-I-phenyl))])-OH; lactam N-8)
[1]
  IC50: 1.49 µM
[2]; 30 mg/kg IP, mice
  improvement in t1/2 vs 36: 9 fold
  increase in AUC vs 36: 39 fold
[2]; Mouse, 30 mg/kg IP, mean
  Cl: 0.018 L/h/kg
  Vz: 0.1 L/kg
[2]; [9]
  AUClast: 1750000
  CL/F: 0.271
  Cmax: 167000
  Tmax: 2.0
  Vz/F: 118
  t1/2: 5.0
[2]; [10]
  AUClast: 1710000
  CL/F: 0.278
  Cmax: 182000
  Tmax: 2.0
  Vz/F: 128
  t1/2: 5.3
[2]; [11]
  AUClast: 1270000
  CL/F: 0.356
  Cmax: 96500
  Tmax: 4.0
  Vz/F: 215
  t1/2: 7.0
[2]; [12]
  AUClast: 1810000
  CL/F: 0.266
  Cmax: 151000
  Tmax: 2.0
  Vz/F: 109
  t1/2: 4.7
[2]; [13]
  AUClast: 2150000
  CL/F: 0.219
  Cmax: 231000
  Tmax: 4.0
  Vz/F: 105
  t1/2: 5.5
[2]; [14]
  Vz/F: 135
  t1/2: 5.52 h
[2]; [15]
  AUCINF: 531000 ng·h/mL
  AUClast: 517000 ng·h/mL
  CL/F: 0.0188 L/h/kg
  Cmax: 74.8 µg/mL
  Tmax: 2.0 h
  Vz/F: 122 mL/kg
  t1/2: 4.5 h
[2]; [16]
  AUCINF: 482000 ng·h/mL
  AUClast: 468000 ng·h/mL
  CL/F: 0.0208 L/h/kg
  Cmax: 75.6 µg/mL
  Tmax: 2.0 h
  Vz/F: 128 mL/kg
  t1/2: 4.3 h
[2]; [17]
  AUCINF: 604000 ng·h/mL
  AUClast: 587000 ng·h/mL
  CL/F: 0.0166 L/h/kg
  Cmax: 57.5 µg/mL
  Tmax: 2.0 h
  Vz/F: 108 mL/kg
  t1/2: 4.5 h
[2]; [18]
  AUCINF: 628000 ng·h/mL
  AUClast: 603000 ng·h/mL
  CL/F: 0.0159 L/h/kg
  Cmax: 56.3 µg/mL
  Tmax: 2.0 h
  Vz/F: 112 mL/kg
  t1/2: 4.9 h
[2]; [19]
  AUCINF: 640000 ng·h/mL
  AUClast: 631000 ng·h/mL
  CL/F: 0.0156 L/h/kg
  Cmax: 68.4 µg/mL
  Tmax: 1.0 h
  Vz/F: 91.9 mL/kg
  t1/2: 4.1 h
[2]; [20]
  AUCINF: 546000 ng·h/mL
  AUClast: 528000 ng·h/mL
  CL/F: 0.0183 L/h/kg
  Cmax: 45.7 µg/mL
  Tmax: 4.0 h
  Vz/F: 115 mL/kg
  t1/2: 4.3 h
[2]; [21]
  AUCINF: 469000 ng·h/mL
  AUClast: 455000 ng·h/mL
  CL/F: 0.0213 L/h/kg
  Cmax: 44.7 µg/mL
  Tmax: 4.0 h
  Vz/F: 144 mL/kg
  t1/2: 4.7 h
[2]; [22]
  AUCINF: 596000 ng·h/mL
  AUClast: 567000 ng·h/mL
  CL/F: 0.0168 L/h/kg
  Cmax: 56.8 µg/mL
  Tmax: 4.0 h
  Vz/F: 123 mL/kg
  t1/2: 5.1 h
[2]; [23]
  AUCINF: 635000 ng·h/mL
  AUClast: 609000 ng·h/mL
  CL/F: 0.0157 L/h/kg
  Cmax: 57.9 µg/mL
  Tmax: 4.0 h
  Vz/F: 114 mL/kg
  t1/2: 5.0 h
[2]; [24]
  AUCINF: 558000 ng·h/mL
  AUClast: 541000 ng·h/mL
  CL/F: 0.0179 L/h/kg
  Cmax: 50 µg/mL
  Tmax: 4.0 h
  Vz/F: 120 mL/kg
  t1/2: 4.7 h
[2]; Table S3D: IP 10 mg/kg, Mean N=5
  t1/2: 4.46 h
[2]; [25]
  AUC(0-inf): 577 µg·h/mL
  AUC(0-t): 561 µg·h/mL
  CL/F: 0.0175 L/h/kg
  Cmax: 66.5 µg/mL
  Tmax: 1.8 h
  Vd/F: 0.113 L/kg
  half-life: 4.5 h
[2]; [8]
  AUC(0-t): 1740 µg·h/mL
  CL/F: 0.0167 L/h/kg
  Cmax: 166 µg/mL
  Tmax: 2.8 h
[2]; [26]
  AUC(0-inf): 561 µg·h/mL
  AUC(0-t): 540 µg·h/mL
  CL/F: 0.018 L/h/kg
  Cmax: 51 µg/mL
  Tmax: 4 h
  Vd/F: 0.123 L/kg
  half-life: 4.75 h
[3]
  IC50: > 45 µM
  Emax: 35.1%
